Measurements reported in ChEMBL document CHEMBL4024706 (Eur J Med Chem, 2017).

Experiments:
[1] = test system: Epidermal growth factor receptor (Homo sapiens), P00533 [G719C]; experiment: Inhibition of human partial length EGFR G719C mutant (R669 to V1011 residues) expressed in bacterial expression system assessed as residual activity at 1 uM by Kinomescan method relative to control
[2] = target: Serine/threonine-protein kinase 10 (Homo sapiens) (UniProt O94804); experiment: Inhibition of wild-type human partial length LOK (E16 to V314 residues) expressed in bacterial expression system assessed as residual activity at 1 uM by Kinomescan method relative to control
[3] = test system: Mast/stem cell growth factor receptor Kit (Homo sapiens), P10721 [V559D]; experiment: Inhibition of human partial length KIT V559D mutant (Y545 to D952 residues) expressed in bacterial expression system assessed as residual activity at 1 uM by Kinomescan method relative to control
Mast/stem cell growth factor receptor Kit (Homo sapiens), P10721 [V559D], sequence (P10721 whole entry V559D, the tested form may be a part): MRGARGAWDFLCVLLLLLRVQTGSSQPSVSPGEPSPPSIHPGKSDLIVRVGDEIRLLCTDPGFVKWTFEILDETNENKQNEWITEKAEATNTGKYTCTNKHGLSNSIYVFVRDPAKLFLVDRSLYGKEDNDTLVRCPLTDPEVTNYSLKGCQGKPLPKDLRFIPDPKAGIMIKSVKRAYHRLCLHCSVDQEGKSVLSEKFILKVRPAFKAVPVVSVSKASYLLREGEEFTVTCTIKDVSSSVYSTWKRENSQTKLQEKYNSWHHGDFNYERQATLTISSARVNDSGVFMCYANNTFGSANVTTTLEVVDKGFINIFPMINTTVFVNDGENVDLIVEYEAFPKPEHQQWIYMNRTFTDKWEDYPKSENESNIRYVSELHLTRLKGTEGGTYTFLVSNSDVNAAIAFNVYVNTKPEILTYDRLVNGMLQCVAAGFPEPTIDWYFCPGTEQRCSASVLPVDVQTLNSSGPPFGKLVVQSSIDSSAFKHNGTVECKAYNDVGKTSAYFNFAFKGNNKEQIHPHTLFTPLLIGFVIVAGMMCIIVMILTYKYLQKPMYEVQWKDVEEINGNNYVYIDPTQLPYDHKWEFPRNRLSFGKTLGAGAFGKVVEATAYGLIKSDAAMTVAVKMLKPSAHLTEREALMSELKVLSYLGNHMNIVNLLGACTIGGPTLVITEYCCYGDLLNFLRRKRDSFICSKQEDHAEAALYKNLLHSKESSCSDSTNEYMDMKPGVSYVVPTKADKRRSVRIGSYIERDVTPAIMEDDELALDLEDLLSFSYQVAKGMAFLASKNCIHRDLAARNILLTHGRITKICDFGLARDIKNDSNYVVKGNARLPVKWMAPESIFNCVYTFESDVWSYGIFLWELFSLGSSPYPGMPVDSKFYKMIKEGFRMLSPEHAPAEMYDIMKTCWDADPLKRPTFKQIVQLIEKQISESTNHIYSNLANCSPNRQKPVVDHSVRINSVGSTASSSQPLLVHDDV

[4] = target: Tyrosine-protein kinase Lyn (Homo sapiens) (UniProt P07948); experiment: Inhibition of wild-type human partial length LYN (C219 to Q511 residues) expressed in bacterial expression system assessed as residual activity at 1 uM by Kinomescan method relative to control
Tyrosine-protein kinase Lyn (Homo sapiens), sequence (P07948 2-512 limits assumed): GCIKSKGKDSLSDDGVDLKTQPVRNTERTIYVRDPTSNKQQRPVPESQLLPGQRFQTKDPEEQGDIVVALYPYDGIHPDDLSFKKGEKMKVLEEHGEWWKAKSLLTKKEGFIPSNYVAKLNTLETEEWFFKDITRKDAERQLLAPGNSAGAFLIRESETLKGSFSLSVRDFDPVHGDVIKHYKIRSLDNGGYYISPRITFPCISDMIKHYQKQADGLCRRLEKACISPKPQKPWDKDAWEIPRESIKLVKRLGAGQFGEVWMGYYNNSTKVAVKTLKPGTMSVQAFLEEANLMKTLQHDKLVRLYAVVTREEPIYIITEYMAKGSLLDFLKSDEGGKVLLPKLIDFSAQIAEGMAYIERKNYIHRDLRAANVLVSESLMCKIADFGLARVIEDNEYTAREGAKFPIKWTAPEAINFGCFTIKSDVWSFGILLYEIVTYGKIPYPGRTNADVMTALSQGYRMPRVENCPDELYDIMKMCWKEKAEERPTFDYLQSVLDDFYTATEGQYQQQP

[5] = target: Megakaryocyte-associated tyrosine-protein kinase (Homo sapiens) (UniProt P42679); experiment: Inhibition of wild-type human full length CTK (M43 to P508 residues) expressed in mammalian expression system assessed as residual activity at 1 uM by Kinomescan method relative to control
Megakaryocyte-associated tyrosine-protein kinase (Homo sapiens), sequence (P42679 whole entry, the tested form may be a part): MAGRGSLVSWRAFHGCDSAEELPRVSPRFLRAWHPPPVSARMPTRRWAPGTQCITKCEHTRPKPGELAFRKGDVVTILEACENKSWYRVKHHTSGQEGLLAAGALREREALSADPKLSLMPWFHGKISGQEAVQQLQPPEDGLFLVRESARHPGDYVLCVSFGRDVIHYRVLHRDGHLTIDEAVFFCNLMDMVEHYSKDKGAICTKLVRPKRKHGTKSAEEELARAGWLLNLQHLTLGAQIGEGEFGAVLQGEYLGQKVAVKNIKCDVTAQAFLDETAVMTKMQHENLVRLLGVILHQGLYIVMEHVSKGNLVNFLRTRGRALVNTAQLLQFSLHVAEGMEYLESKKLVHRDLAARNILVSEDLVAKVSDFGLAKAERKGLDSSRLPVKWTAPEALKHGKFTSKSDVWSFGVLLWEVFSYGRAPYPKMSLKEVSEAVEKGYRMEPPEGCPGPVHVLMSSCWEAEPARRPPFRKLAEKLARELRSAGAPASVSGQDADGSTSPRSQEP

[6] = target: Serine/threonine-protein kinase TBK1 (Homo sapiens) (UniProt Q9UHD2); experiment: Inhibition of wild-type human full length TBK1 (M1 to L729 residues) expressed in mammalian expression system assessed as residual activity at 1 uM by Kinomescan method relative to control
Serine/threonine-protein kinase TBK1 (Homo sapiens), sequence (Q9UHD2 whole entry, the tested form may be a part): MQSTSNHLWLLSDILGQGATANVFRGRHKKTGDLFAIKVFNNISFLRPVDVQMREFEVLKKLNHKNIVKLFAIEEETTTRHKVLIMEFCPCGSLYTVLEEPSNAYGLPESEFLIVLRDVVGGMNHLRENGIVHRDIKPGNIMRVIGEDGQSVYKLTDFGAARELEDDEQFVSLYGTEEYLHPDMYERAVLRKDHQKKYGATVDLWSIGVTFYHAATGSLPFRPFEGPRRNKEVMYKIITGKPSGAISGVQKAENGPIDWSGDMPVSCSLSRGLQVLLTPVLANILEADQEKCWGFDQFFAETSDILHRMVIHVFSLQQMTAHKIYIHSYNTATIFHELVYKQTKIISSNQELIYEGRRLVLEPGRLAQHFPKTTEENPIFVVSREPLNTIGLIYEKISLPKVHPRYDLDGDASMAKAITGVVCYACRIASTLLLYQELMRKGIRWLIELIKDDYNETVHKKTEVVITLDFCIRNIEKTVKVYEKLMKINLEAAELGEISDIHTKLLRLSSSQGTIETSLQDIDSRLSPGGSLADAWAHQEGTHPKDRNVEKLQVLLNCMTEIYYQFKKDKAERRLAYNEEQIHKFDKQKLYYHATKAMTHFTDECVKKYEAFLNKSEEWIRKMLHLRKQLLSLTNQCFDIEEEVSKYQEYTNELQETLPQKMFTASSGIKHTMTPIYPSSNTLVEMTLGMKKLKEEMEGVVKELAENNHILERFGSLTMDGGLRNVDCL

[7] = target: Ephrin type-B receptor 6 (Homo sapiens) (UniProt O15197); experiment: Inhibition of wild-type human partial length EPHB6 (Q634 to P948 residues) expressed in mammalian expression system assessed as residual activity at 1 uM by Kinomescan method relative to control
[8] = target: Tyrosine-protein kinase TXK (Homo sapiens) (UniProt P42681); experiment: Inhibition of wild-type human partial length TXK (L238 to W527 residues) expressed in bacterial expression system assessed as residual activity at 1 uM by Kinomescan method relative to control
[9] = target: Receptor-type tyrosine-protein kinase FLT3 (Homo sapiens) (UniProt P36888); experiment: Inhibition of wild-type human partial length FLT3 (V592 to Y969 residues) expressed in bacterial expression system assessed as residual activity at 1 uM by Kinomescan method relative to control
[10] = target: Serine/threonine-protein kinase Nek7 (Homo sapiens) (UniProt Q8TDX7); experiment: Inhibition of wild-type human full length NEK7 (M1 to S302 residues) expressed in bacterial expression system assessed as residual activity at 1 uM by Kinomescan method relative to control
Serine/threonine-protein kinase Nek7 (Homo sapiens), sequence (Q8TDX7 whole entry, looked up, the tested form may be a part): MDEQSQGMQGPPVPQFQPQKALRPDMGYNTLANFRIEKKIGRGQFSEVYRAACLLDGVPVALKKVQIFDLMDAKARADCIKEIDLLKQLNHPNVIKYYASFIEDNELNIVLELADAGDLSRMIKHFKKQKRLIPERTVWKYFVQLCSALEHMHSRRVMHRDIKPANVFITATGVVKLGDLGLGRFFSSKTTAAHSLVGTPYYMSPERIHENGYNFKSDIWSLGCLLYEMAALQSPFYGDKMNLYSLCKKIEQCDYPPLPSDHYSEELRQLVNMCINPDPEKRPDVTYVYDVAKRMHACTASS

[11] = target: Mitogen-activated protein kinase kinase kinase 20 (Homo sapiens) (UniProt Q9NYL2); experiment: Inhibition of wild-type human partial length ZAK (M1 to L331 residues) expressed in bacterial expression system assessed as residual activity at 1 uM by Kinomescan method relative to control
Mitogen-activated protein kinase kinase kinase 20 (Homo sapiens), sequence (Q9NYL2 2-800 limits assumed): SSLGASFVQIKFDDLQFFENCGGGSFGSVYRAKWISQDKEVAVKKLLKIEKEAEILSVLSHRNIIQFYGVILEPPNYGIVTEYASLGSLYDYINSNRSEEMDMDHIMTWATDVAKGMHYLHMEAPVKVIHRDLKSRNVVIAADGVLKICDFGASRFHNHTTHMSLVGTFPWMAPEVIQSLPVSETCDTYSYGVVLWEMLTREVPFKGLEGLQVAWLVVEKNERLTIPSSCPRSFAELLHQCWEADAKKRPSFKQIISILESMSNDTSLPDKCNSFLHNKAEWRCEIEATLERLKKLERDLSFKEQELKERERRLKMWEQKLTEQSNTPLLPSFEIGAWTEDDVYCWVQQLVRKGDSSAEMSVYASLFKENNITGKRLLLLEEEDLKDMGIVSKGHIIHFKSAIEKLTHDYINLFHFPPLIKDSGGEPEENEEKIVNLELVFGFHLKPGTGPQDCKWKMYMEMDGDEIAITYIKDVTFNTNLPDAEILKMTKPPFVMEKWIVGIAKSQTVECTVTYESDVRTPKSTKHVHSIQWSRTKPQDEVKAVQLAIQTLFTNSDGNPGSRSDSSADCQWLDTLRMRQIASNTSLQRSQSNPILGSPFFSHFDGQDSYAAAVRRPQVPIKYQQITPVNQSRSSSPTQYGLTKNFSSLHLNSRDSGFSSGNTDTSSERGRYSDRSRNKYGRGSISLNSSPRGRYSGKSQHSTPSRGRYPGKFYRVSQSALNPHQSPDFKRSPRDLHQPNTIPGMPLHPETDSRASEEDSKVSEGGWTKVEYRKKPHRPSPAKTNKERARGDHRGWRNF

[12] = target: Mitogen-activated protein kinase kinase kinase kinase 4 (Homo sapiens) (UniProt O95819); experiment: Inhibition of wild-type human partial length MAP4K4 (M1 to R310 residues) expressed in bacterial expression system assessed as residual activity at 1 uM by Kinomescan method relative to control
Mitogen-activated protein kinase kinase kinase kinase 4 (Homo sapiens), sequence (O95819 2-1239 limits assumed): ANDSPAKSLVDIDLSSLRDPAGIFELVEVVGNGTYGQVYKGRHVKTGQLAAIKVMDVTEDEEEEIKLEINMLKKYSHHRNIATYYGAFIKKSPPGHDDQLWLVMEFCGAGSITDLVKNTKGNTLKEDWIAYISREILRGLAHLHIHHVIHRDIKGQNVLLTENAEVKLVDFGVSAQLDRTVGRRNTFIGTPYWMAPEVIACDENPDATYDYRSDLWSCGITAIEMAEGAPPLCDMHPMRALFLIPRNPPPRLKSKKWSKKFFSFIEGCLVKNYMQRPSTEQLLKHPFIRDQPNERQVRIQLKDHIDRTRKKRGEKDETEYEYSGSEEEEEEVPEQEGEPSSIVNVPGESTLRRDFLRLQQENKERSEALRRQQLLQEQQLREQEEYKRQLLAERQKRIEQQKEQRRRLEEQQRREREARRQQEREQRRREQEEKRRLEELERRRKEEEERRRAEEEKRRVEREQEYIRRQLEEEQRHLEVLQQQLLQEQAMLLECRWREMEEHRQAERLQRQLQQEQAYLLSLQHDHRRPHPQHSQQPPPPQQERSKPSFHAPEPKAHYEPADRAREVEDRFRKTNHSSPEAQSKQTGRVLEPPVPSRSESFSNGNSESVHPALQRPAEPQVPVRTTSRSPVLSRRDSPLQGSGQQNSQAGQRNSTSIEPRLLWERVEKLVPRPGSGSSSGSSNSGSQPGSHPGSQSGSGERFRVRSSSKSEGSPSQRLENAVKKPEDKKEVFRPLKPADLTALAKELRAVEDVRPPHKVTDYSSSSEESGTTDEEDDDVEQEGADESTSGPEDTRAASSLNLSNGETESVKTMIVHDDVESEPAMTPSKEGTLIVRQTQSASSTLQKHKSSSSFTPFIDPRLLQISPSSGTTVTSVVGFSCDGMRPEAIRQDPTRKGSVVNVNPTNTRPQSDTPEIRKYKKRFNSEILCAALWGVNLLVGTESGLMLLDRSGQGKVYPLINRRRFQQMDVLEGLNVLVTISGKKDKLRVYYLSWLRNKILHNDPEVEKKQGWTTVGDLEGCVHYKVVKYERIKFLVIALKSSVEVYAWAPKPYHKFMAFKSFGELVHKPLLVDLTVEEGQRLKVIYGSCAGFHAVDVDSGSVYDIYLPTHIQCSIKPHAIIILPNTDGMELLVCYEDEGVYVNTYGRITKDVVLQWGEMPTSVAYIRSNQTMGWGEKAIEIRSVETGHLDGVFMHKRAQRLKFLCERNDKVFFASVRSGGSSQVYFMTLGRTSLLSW

[13] = Cmax in Sprague-Dawley rat at 10 mg/kg, po by LC-MS/MS method; type: ADME, organism-based; design: dose 10 mg/kg, route oral; details: in vivo
[14] = test system: Phosphatidylinositol 4,5-bisphosphate 3-kinase catalytic subunit alpha isoform (Homo sapiens), P42336 [H1047Y]; experiment: Inhibition of human partial length PIK3CA H1047Y mutant (R108 to N1068 residues) expressed in mammalian expression system assessed as residual activity at 1 uM by Kinomescan method relative to control

Work on `C=CC(=O)Nc1cc(Nc2cc(-c3cccc(NC(=O)c4ccc(C(C)(C)C)cc4)c3C)cn(C)c2=O)ccc1C(=O)N1CCOCC1` yielded an Activity [1] of 100%, an Activity [2] of 94% and an Activity [3] of 93%. For the same compound, the Activity [4] was 92%, the Activity [5] was 100% and the Activity [6] was 100%. For the same compound, the Activity [7] was 100%, the Activity [8] was 100% and the Activity [9] was 94%. It also gave an Activity [10] of 95%, an Activity [11] of 94% and an Activity [12] of 86%. For the same compound, the Cmax [13] was 32.8 ng/mL and the Activity [14] was 91%.
